# Results reported in PubChem BioAssay AID2060882 (Molecular Pharmacology Branch, DTP, NCI, 2025).
# Tested on: 898857-211-R-J1-PDC complex spheroids, growth % test/control
# Test: Anticancer human tumor 898857-211-R-J1-PDC patient-derived melanoma cell line growth inhibition [RAS]
# Details: for IC50: curve of first compound; for viability, T/C: stronger effect = lower value
# In short: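 Tumour cells grown as complex spheroids with HUVEC endothelial cells and mesenchymal stem cells, treated with RAS pathway inhibitor combinations. Each agent spans half-log steps from near clinical Cmax, or 10 microM where Cmax is unknown.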
# 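Note: spheroids exposed to compound for seven days before readout.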
# 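Throughout, for viability, T/C: 100% = DMSO vehicle control wells.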
compound,measurement,setting,value
C=CC(=O)N1CCN(c2nc(OCC3CCCN3C)nc3c(F)c(-c4nc(N)cc(C)c4C(F)(F)F)c(Cl)cc23)C(C)C1 (centres undefined) + CCn1c(-c2cc(N3CCN(C)CC3)cnc2C(C)OC)c2c3cc(ccc31)-c1csc(n1)CC(NC(=O)C1CC1C)C(=O)N1CCCC(N1)C(=O)OCC(C)(C)C2,IC50,second compound 0.000949 µM,> 1000 nM
same,IC50,second compound 0.003 µM,> 1000 nM
same,IC50,second compound 0.00949 µM,> 1000 nM
same,IC50,second compound 0.03 µM,> 1000 nM
same,IC50,second compound 0.0949 µM,> 1000 nM
same,IC50,second compound 0.3 µM,> 1000 nM
same,"viability, T/C","second compound 0.000949 µM, first compound 0.00316 µM",124%
same,"viability, T/C","second compound 0.000949 µM, first compound 0.01 µM",106%
same,"viability, T/C","second compound 0.000949 µM, first compound 0.0316 µM",105%
same,"viability, T/C","second compound 0.000949 µM, first compound 0.1 µM",111%
same,"viability, T/C","second compound 0.000949 µM, first compound 0.316 µM",127%
same,"viability, T/C","second compound 0.000949 µM, first compound 1 µM",126%
same,"viability, T/C","second compound 0.003 µM, first compound 0.00316 µM",99.6%
same,"viability, T/C","second compound 0.003 µM, first compound 0.01 µM",104%
same,"viability, T/C","second compound 0.003 µM, first compound 0.0316 µM",116%
same,"viability, T/C","second compound 0.003 µM, first compound 0.1 µM",101%
same,"viability, T/C","second compound 0.003 µM, first compound 0.316 µM",114%
same,"viability, T/C","second compound 0.003 µM, first compound 1 µM",108%
same,"viability, T/C","second compound 0.00949 µM, first compound 0.00316 µM",101%
same,"viability, T/C","second compound 0.00949 µM, first compound 0.01 µM",112%
same,"viability, T/C","second compound 0.00949 µM, first compound 0.0316 µM",98.9%
same,"viability, T/C","second compound 0.00949 µM, first compound 0.1 µM",101%
same,"viability, T/C","second compound 0.00949 µM, first compound 0.316 µM",118%
same,"viability, T/C","second compound 0.00949 µM, first compound 1 µM",104%
same,"viability, T/C","second compound 0.03 µM, first compound 0.00316 µM",106%
same,"viability, T/C","second compound 0.03 µM, first compound 0.01 µM",112%
same,"viability, T/C","second compound 0.03 µM, first compound 0.0316 µM",103%
same,"viability, T/C","second compound 0.03 µM, first compound 0.1 µM",121%
same,"viability, T/C","second compound 0.03 µM, first compound 0.316 µM",110%
same,"viability, T/C","second compound 0.03 µM, first compound 1 µM",110%
same,"viability, T/C","second compound 0.0949 µM, first compound 0.00316 µM",111%
same,"viability, T/C","second compound 0.0949 µM, first compound 0.01 µM",117%
same,"viability, T/C","second compound 0.0949 µM, first compound 0.0316 µM",117%
same,"viability, T/C","second compound 0.0949 µM, first compound 0.1 µM",116%
same,"viability, T/C","second compound 0.0949 µM, first compound 0.316 µM",120%
same,"viability, T/C","second compound 0.0949 µM, first compound 1 µM",110%
same,"viability, T/C","second compound 0.3 µM, first compound 0.00316 µM",123%
same,"viability, T/C","second compound 0.3 µM, first compound 0.01 µM",111%
same,"viability, T/C","second compound 0.3 µM, first compound 0.0316 µM",100%
same,"viability, T/C","second compound 0.3 µM, first compound 0.1 µM",116%
same,"viability, T/C","second compound 0.3 µM, first compound 0.316 µM",111%
same,"viability, T/C","second compound 0.3 µM, first compound 1 µM",99.7%
CC1(C)CCC(Nc2ncc(C(F)(F)F)c(-c3c[nH]c4c(P(C)(C)=O)c(C#N)ccc34)n2)CN1 (centres undefined) + CCn1c(-c2cc(N3CCN(C)CC3)cnc2C(C)OC)c2c3cc(ccc31)-c1csc(n1)CC(NC(=O)C1CC1C)C(=O)N1CCCC(N1)C(=O)OCC(C)(C)C2,IC50,second compound 0.000949 µM,2.87 nM
same,IC50,second compound 0.003 µM,2.98 nM
same,IC50,second compound 0.00949 µM,3.56 nM
same,IC50,second compound 0.03 µM,2.5 nM
same,IC50,second compound 0.0949 µM,3.54 nM
same,IC50,second compound 0.3 µM,2.87 nM
same,"viability, T/C","second compound 0.000949 µM, first compound 0.000949 µM",104%
same,"viability, T/C","second compound 0.000949 µM, first compound 0.003 µM",47.7%
same,"viability, T/C","second compound 0.000949 µM, first compound 0.00949 µM",24.2%
same,"viability, T/C","second compound 0.000949 µM, first compound 0.03 µM",16.2%
same,"viability, T/C","second compound 0.000949 µM, first compound 0.0949 µM",17.3%
same,"viability, T/C","second compound 0.000949 µM, first compound 0.3 µM",15.1%
same,"viability, T/C","second compound 0.003 µM, first compound 0.000949 µM",79.3%
same,"viability, T/C","second compound 0.003 µM, first compound 0.003 µM",49.8%
same,"viability, T/C","second compound 0.003 µM, first compound 0.00949 µM",25.2%
same,"viability, T/C","second compound 0.003 µM, first compound 0.03 µM",18.4%
same,"viability, T/C","second compound 0.003 µM, first compound 0.0949 µM",16%
same,"viability, T/C","second compound 0.003 µM, first compound 0.3 µM",17.5%
same,"viability, T/C","second compound 0.00949 µM, first compound 0.000949 µM",83.1%
same,"viability, T/C","second compound 0.00949 µM, first compound 0.003 µM",54.7%
same,"viability, T/C","second compound 0.00949 µM, first compound 0.00949 µM",23.2%
same,"viability, T/C","second compound 0.00949 µM, first compound 0.03 µM",15.7%
same,"viability, T/C","second compound 0.00949 µM, first compound 0.0949 µM",17.8%
same,"viability, T/C","second compound 0.00949 µM, first compound 0.3 µM",17.8%
same,"viability, T/C","second compound 0.03 µM, first compound 0.000949 µM",83.3%
same,"viability, T/C","second compound 0.03 µM, first compound 0.003 µM",43.7%
same,"viability, T/C","second compound 0.03 µM, first compound 0.00949 µM",23.4%
same,"viability, T/C","second compound 0.03 µM, first compound 0.03 µM",19.8%
same,"viability, T/C","second compound 0.03 µM, first compound 0.0949 µM",17.5%
same,"viability, T/C","second compound 0.03 µM, first compound 0.3 µM",18.3%
same,"viability, T/C","second compound 0.0949 µM, first compound 0.000949 µM",81.3%
same,"viability, T/C","second compound 0.0949 µM, first compound 0.003 µM",54%
same,"viability, T/C","second compound 0.0949 µM, first compound 0.00949 µM",26.2%
same,"viability, T/C","second compound 0.0949 µM, first compound 0.03 µM",19.4%
same,"viability, T/C","second compound 0.0949 µM, first compound 0.0949 µM",18.1%
same,"viability, T/C","second compound 0.0949 µM, first compound 0.3 µM",16.6%
same,"viability, T/C","second compound 0.3 µM, first compound 0.000949 µM",78.5%
same,"viability, T/C","second compound 0.3 µM, first compound 0.003 µM",48.9%
same,"viability, T/C","second compound 0.3 µM, first compound 0.00949 µM",23.7%
same,"viability, T/C","second compound 0.3 µM, first compound 0.03 µM",18.4%
same,"viability, T/C","second compound 0.3 µM, first compound 0.0949 µM",16%
same,"viability, T/C","second compound 0.3 µM, first compound 0.3 µM",17.2%
